From patent US20060135588A1, “Preventive and/or therapeutic drugs for inflammatory intestinal diseases” (priority 2002, published 2006)

What was measured:
Format in all cases: in vivo, Sprague-Dawley male rats
[1] = system: interleukin-6 in the plasma; test: Concentration of interleukin-6 in plasma of rats with DSS-induced colitis (ELISA); settings: 8 days DSS, FIG. 4(B)
Description: (§1) The edaravone as synthesized above was dissolved in a small amount of 1 N sodium hydroxide solution. Thereafter, the pH thereof was adjusted to be around neutral.
6-week-old Sprague-Dawley male rats (Clea Japan, Inc.) were used. According to the method described in the previous report (Araki Y. et al., Scand J Gastroentero, 35, 1060-1067, 2000), colitis was induced to develop in the rats as follows. That is to say, 4% (w/w) dextran sulfate sodium (DSS; molecular weight: 5,000; Wako Pure Chemical Industries, Ltd., Osaka) was added to a powder diet MF (Oriental Yeast Co., Ltd.). The rats were fed with the thus obtained mixed diet at an amount of 30 g/day/rat for 8 days. With regard to edaravone administration groups, from immediately after initiation of the administration of DSS, edaravone was subcutaneously injected into the back of each rat, at a dose of 1 mg/kg/day, 5 mg/kg/day, or 20 mg/kg/day, which was dividedly administered in the morning and evening. […]
The concentration of interleukin-6 in the plasma was measured as an indicator of a systemic inflammatory reaction. That is to say, the blood was centrifuged at 10,000 rpm, and then the concentration of interleukin-6 in the plasma was measured by the ELISA method (Rat IL-6 ELISA KIT, BioSource Europe, S.A., Belgium). […]

[2] = system: myeloperoxidase activity in the large intestinal mucosa; test: Myeloperoxidase activity in large intestinal mucosa of rats with DSS-induced colitis; settings: 8 days DSS, FIG. 3(B)
Description: as §1
(§2) 6-week-old Sprague-Dawley male rats (Clea Japan, Inc.) were used. According to the method described in the previous report (Araki Y. et al., Scand J Gastroentero, 35, 1060-1067, 2000), colitis was induced to develop in the rats as follows. That is to say, 4% (w/w) dextran sulfate sodium (DSS; molecular weight: 5,000; Wako Pure Chemical Industries, Ltd., Osaka) was added to a powder diet MF (Oriental Yeast Co., Ltd.). The rats were fed with the thus obtained mixed diet at an amount of 30 g/day/rat for 8 days. […]
Myeloperoxidase activity used as an indicator of inflammation in the large intestinal mucosa was measured by the method described in the previous report (Araki Y. et al., Clin Exp Immunol, 119, 264-269, 2000). […] The activity of the obtained homogenate was observed as a change in the absorbance at 460 nm obtained as a result of the reaction of H2O2 with o-dianisidin.
Hyperoxidation of lipids is an important mechanism regarding tissue injury. […] Accordingly, the concentrations of MDA and 4-HNE in the large intestinal mucosa were measured, and the obtained values were used as indicators of the state of reactive oxygen species (ROS) in tissues (Matsumura N. et al., Pancreas, 22, 53-7, 2001). […]

[3] = system: Dextran sulfate sodium (DSS)-induced colitis; test: Evaluation of DSS-induced colitis by naked eyes (wet weight of large intestine, injured mucosa area); settings: all groups: 1, 5 and 20 mg/kg/day s.c., 8 days of 4% DSS diet
Description: as §1, §2
8 days later, the rats were subjected to anatomy. […] Thereafter, the large intestine (the colon and the rectum) was excised, and the wet weight of the organ was measured. The degree of the injured large intestinal mucosa was evaluated by naked eyes according to the method described in the previous report (Araki Y. et al., Scand J Gastroentero, 35, 1060-1067, 2000). That is, the areas of portions, on which a change in the color tone of the mucosa (redness), an attachment of blood clots, a collapse of mucosal wall area, edema, or erosion were observed, were measured. […]

[4] = system: Dextran sulfate sodium (DSS)-induced colitis; test: Histological evaluation of DSS-induced colitis (damage score); settings: 8 days DSS; for damage score vs control group: FIG. 3(A)
Description: as §1
6-week-old Sprague-Dawley male rats (Clea Japan, Inc.) were used. According to the method described in the previous report (Araki Y. et al., Scand J Gastroentero, 35, 1060-1067, 2000), colitis was induced to develop in the rats as follows. That is to say, 4% (w/w) dextran sulfate sodium (DSS; molecular weight: 5,000; Wako Pure Chemical Industries, Ltd., Osaka) was added to a powder diet MF (Oriental Yeast Co., Ltd.). The rats were fed with the thus obtained mixed diet at an amount of 30 g/day/rat for 8 days. With regard to edaravone administration groups, from immediately after initiation of the administration of DSS, edaravone was subcutaneously injected into the back of each rat, at a dose of 1 mg/kg/day, 5 mg/kg/day, or 20 mg/kg/day, which was dividedly administered in the morning and evening. With regard to a control group, a normal saline solution was subcutaneously injected into the back of each rat in the same above manner.
The mucosa located at 5 mm from the anus side was fixed with a Carnoy's fluid for 3 hours, and was then embedded in paraffin. Thereafter, a tissue fragment with a thickness of 5 μm was prepared, followed by hematoxylin-eosin staining. Scoring of colitis was conducted in accordance with the method described in the previous report (Araki Y. et al., Scand J Gastroentero, 35, 1060-1067, 2000). Namely, the degree and size of each of the following 3 items: (i) the absence of the mucosal epithelium, (ii) deformation of crypts, and (iii) the level of infiltration of inflammatory cells, are expressed in the following point system: 0: none; 1: slight and localized; 2: moderate and localized; 3: moderate and broad; and 4: severe and broad. The total points regarding the above 3 items were summed up, and the obtained value was defined as the histological colitis score (damage score) of a rat.
The results are shown as mean±SEM. The comparison between groups was carried out by Fisher's PLSD Test. […]

[5] = system: MDA and 4-HNE in the large intestinal mucosa; test: Concentrations of MDA and 4-HNE in large intestinal mucosa of rats with DSS-induced colitis; settings: all groups: 1, 5 and 20 mg/kg/day s.c., 8 days DSS; no significant differences among the administration groups; FIG. 4(A)
Description: as §1, §2
Hyperoxidation of lipids is an important mechanism regarding tissue injury. […] Accordingly, the concentrations of MDA and 4-HNE in the large intestinal mucosa were measured, and the obtained values were used as indicators of the state of reactive oxygen species (ROS) in tissues (Matsumura N. et al., Pancreas, 22, 53-7, 2001). That is, the large intestinal mucosa was homogenized with 9 times its volume of 50 mmol/l Tris-buffer (pH 8.0) containing 0.5% Triton X-100, and the concentrations were measured using an assay kit, Lipid peroxidation assay kit (Calbiochem, La Jolla, Calif., U.S.A.). […]

[6] = all groups: 1, 5 and 20 mg/kg/day s.c.

CC1=NN(c2ccccc2)C(=O)C1 [edaravone, 3-methyl-1-phenyl-2-pyrazolin-5-one]
concentration of IL-6 in the plasma vs control group ([1]; 20 mg/kg/day s.c.): significantly lower | concentration of IL-6 in the plasma vs control group [1, 6]: lower | myeloperoxidase activity in the large intestinal mucosa vs control group ([2]; 20 mg/kg/day s.c.): significantly lower | myeloperoxidase activity in the large intestinal mucosa vs control group [2, 6]: lower | injured mucosa area vs control group ([3]; FIG. 1(B)): significantly smaller | wet weight of the large intestine vs control group ([3]; divided morning and evening, FIG. 1(A)): significantly lower | damage score vs control group ([4]; 20 mg/kg/day s.c.): significantly lower | edema formed in the submucosal layer and infiltration of inflammatory cells (large intestine tissue image) ([4]; 1, 5 and 20 mg/kg/day s.c., hematoxylin-eosin, FIG. 2): suppressed | damage score vs control group [4, 6]: lower | concentrations of MDA and 4-HNE in the large intestinal mucosa vs control group [5]: lower
